Consider 11 substances from patent US6737407B1, “Treatment of obesity” (Metabolic Pharmaceuticals, Ltd., priority 1997, dated 2004).

Bridges are numbered along the chain shown (N, C = ends). Where no end group is shown, it is not given here.

Test [1] has as its system adipose tissues from male Zucker fatty (fa/fa) rats. Nature of the test: In vitro glycerol release during lipolysis in isolated adipose tissue. Type of test: cell-based, rat. As for the experimental part:
(§1) Adipose tissues were removed from animals and sliced into segments of approximately 200 mg each. Then the tissues were pre-incubated in 25 ml vials containing 2 ml of Krebs-Ringerbicarbonate (KRB) buffer, 4% defatted BSA and 5.5 mM glucose under an atmosphere of carbogen (95%O2/ 5%CO2) at 37° C. for 1 hour. Tissues were then transferred to another vials with fresh medium and the incubation was initiated by adding hGH 177-191 peptide or analogues into the vials. The mixtures were then incubated at 37° C. for 90 minutes. After incubation, the tissues wee removed and aliquots (200 μl) of samples withdrawn from the medium were assayed for the contents of glycerol or free fatty acid (FFA) either by the enzyme assay (glycerol kinase) or calorimetric (copper-dye) spectrometry. The NADH or color produced was then monitored by the absorption at 340 nm and 610 nm, respectively.

Another test concerns C57BL/6J (ob/ob) mice. Nature of the test: Chronic treatment of C57BL/6J (ob/ob) mice with peptide analogues. The format is in vivo, mouse. The method, then:
Animals were given a daily intraperitoneal injection of either saline (as control) or peptide analogue (500 μg/kg body weight). Each point represents the mean±SEM of 6 animals.
The treatment for the two groups of animals was as described in FIG. 11A. Each point represents the mean±SEM of 6 animals.
The animals of the same age and same sex were randomly divided into two groups, housed 6 per cage and maintained on a normal 12-hr light/dark cycle at a constant room temperature of 25° C. in the animal house of the Department of Biochemistry and—Molecular Biology, Monash University, Clayton, Australia. Animals were fed ad libitum on pre-determined quantity of animal pellets (Clark King, Melboume, Australia) and allowed free access to water at all times. The animals were given a daily intraperitoneal (i.p) injection of 0.1 ml of either the synthetic peptide (200-500 μg/kg body weight) or equivalent volume of physiological saline (0.9% sodium chloride) for appropriate number of days. The i.p. injection was administered with a 30G×½″ (0.31×13 mm) needle on a 1-ml disposable tuberculin syringes, and the site of injection was the lower left quadrant of the abdomen of the animals. To study the effects of controlled-delivery of hGH 177-191 and analogues, slow-release peptide-pellets in a diameter of 3 mm were implanted intradermally in the abdominal region of Zucker rats under anaesthesia. The body weight and food intake were monitored for the periods of time as indicated.
Cumulative weight gain and food consumption were determined at 3-day intervals by the measurements of body weight and uneaten food remaining in the cages. The animals were placed in a covered chamber to minimise movement during the weighing procedure. The food consumption data were obtained by subtracting the amount of uneaten food remaining in the cages from the original provision.
The animals were anaesthetised with sodium pentobarbitone (80 mg/kg body weight) 12 hr after the last dose of hGH 177-191. Blood samples were collected from the tail vein of anaesthetised animals 45 mins after the administration of anaesthetic. After being centrifuged at 2000×g for 5 minutes, plasma was removed from the samples and used for metabolite assays. Triglyceride and total cholesterol in plasma were measured by enzyme-spectrophotometric methods. The reagents are based on either a modified glycerol phosphate oxidase (GPO)-Trinder's type colour reaction^24 or a cholesterol oxidase-4-aminoantipyrine method^25. All assays were performed with the CentrifiChem System 400 (Union Carbide) containing an automated pipetter, a centrifugal analyser and a recording spectrophotometer. Seronorm Lipid (Nycomed Pharma Co., Oslo, Norway) was used as the calibrator.

The test system of test [2] is adipose tissues from male Zucker fatty (fa/fa) rats. Nature of the test: In vitro inhibition of lipogenesis in isolated adipose tissue. As to conditions: for activity according to the in vivo and in vitro assay results (in words): structure-activity summary; for In vitro lipogenesis % of control / In vitro lipogenesis Activity / In vitro lipogenesis, rate of [C14]-glucose incorporation into [C14]-lipid: peptide 0.3 μM, insulin 0.1 mU/ml; for In vitro lipogenesis, rate of [C14]-glucose incorporation into [C14]-lipid: KRB buffer. Type of test: cell-based, rat. As for the experimental part:
(§2) The rate of the incorporation of exogenous [C^14]-glucose into total lipid in adipose tissue was measured as the index of anti-lipogenic activity of hGH 177-191.
(§3) Adipose tissues were sliced into segments of approximately 200 mg each and then placed in Krebs-Ringer bicarbonate (KRB) buffer (pH 7.4) containing 2% defatted BSA, and glucose (0.1 mg/ml) and gassed with 95% O2-5% CO2 at 37° C. After 1 hr preincubation, the tissues were transferred to another 2 ml of fresh media containing [C^14]-glucose (final specific activity 0.05 μCi/μmol), and 0.3 μM of hGH 177-191 in the presence or absence of insulin (0.1 mU/ml) for a further 90 min incubation (conditions as above). Then the tissues were removed, washed thoroughly with KRB buffer and lipid was extracted with 5 ml of chlorofom/methanol (2:1, v/v) The extraction solution was washed with 2 ml of MeOH-H2O solution containing 0.1% MgCl2. A 2.5 ml aliquot of the washed extraction solution was taken and transferred to scintillation vials. The [C^14] radioactivity was measured with a liquid scintillation counter. The rates of total lipid synthesis were expressed as μmol [C^14]-glucose incorporated into lipid/g tissue/hr.

The subject of test [3] is Human Abdominal adipose Tissue. Nature of the test: Antilipogenic activity in human abdominal adipose tissue. Type of test: cell-based. As to conditions: 0.1 μM peptide; BSA + insulin. As for the experimental part:
as §2
as §3, with “and 0.3 μM of hGH 177-191 in the presence or absence” left out
(§4) Tables 6 and 7 show the in vitro antilipogenic and lipolytic activity of hGH 177-191 and two representative analogues (Ref Nos. 9604 and 9605) on human adipose tissue.

A further test relates to Porcine adipose Tissue. Nature of the test: Lipolytic activity in porcine adipose tissue. The format is cell-based, pig. As to conditions: 0.5 μM peptide. As for the experimental part:
as §1
Since corresponding sequences of non-human mammals are effectively peptide variants of the human sequence, it is also therefore expected that those corresponding sequences will be effective in other mammals including humans.

Test [4] has as its system Human Subcutaneous adipose Tissue. In words: Lipolytic activity in human subcutaneous adipose tissue. The format is cell-based. Particulars: 0.5 μM peptide. As for the experimental part:
as §1, §4

Setting [5] is: Post-treatment (Day 20-38), saline.
The mark [6] stands for this setting: Treatment (Day 0-18), i.p. 500 μg/kg daily.

Turning to “9401 (LRIVQCRSVEGSCGF; listed as Homo sapiens) [compound 9401]”, the Glycerol release came out at 1.82 ± 0.02 μmol/g tissue/hr in test [1] (peptide concentration 0.1 μM) and 1.86 ± 0.12 μmol/g tissue/hr in test [1] (peptide concentration 1.0 μM).

Consider “9403 (LRKVQCRSVEGSCGF; disulfide 6-13; listed as Homo sapiens) [compound 9403]”, for which, in test [1] (peptide concentration 0.1 μM), the Glycerol release is reported as 1.80 ± 0.03 μmol/g tissue/hr. Besides, in test [1] (peptide concentration 1.0 μM), the Glycerol release stood at 1.88 ± 0.13 μmol/g tissue/hr. Moreover, the “average daily food consumption / appetite versus control (in words)” value in the test on C57BL/6J (ob/ob) mice (26-week-old ob/ob mice, FIG. 11B) is given as “No significance”. Also, in the test on C57BL/6J (ob/ob) mice (setting [5]), the Ave. food consumption was 5.03 ± 0.13 g/mouse/day, the Blood glucose came to 6.0 ± 1.0 mM, the Body weight gain is reported as 2.00 ± 0.24 g and the Final body weight amounted to 56.70 ± 4.45 g. Besides, the Triglyceride in the test on C57BL/6J (ob/ob) mice (setting [5]) is 0.54 ± 0.15 mM. Also, in the test with C57BL/6J (ob/ob) mice (setting [6]), the Ave. food consumption came out at 4.82 ± 0.22 g/mouse/day, the Blood glucose worked out at 6.2 ± 0.8 mM, the Body weight gain was -0.32 ± 0.23 g and the Final body weight is 54.42 ± 4.66 g. The substance also came in with a Triglyceride with C57BL/6J (ob/ob) mice (setting [6]) of 0.49 ± 0.10 mM. Besides, the Initial body weight with C57BL/6J (ob/ob) mice (female ob/ob mice 26 weeks, Treatment (Day 0-18), i.p. 500 μg/kg daily) was determined as 54.74 ± 4.96 g. This substance displayed an Initial body weight in the test with C57BL/6J (ob/ob) mice (female ob/ob mice, Post-treatment (Day 20-38), saline) of 54.70 ± 4.15 g. For the same substance, the “anti-obesity action on body weight gain (in words)” value with C57BL/6J (ob/ob) mice (obese mice, FIG. 11A, i.p. 500 μg/kg daily, 18 days) is given as “anti-obesity actions”.

Take “9404 (LRIVQCRSVEGSCGF-NH2; disulfide 6-13; N-terminus assumed; SMILES CC[C@H](C)[C@H](NC(=O)[C@H](CCCNC(=N)N)NC(=O)[C@@H](N)CC(C)C)C(=O)N[C@H](C(=O)N[C@@H](CCC(N)=O)C(=O)N[C@H]1CSSC[C@@H](C(=O)NCC(=O)N[C@@H](Cc2ccccc2)C(N)=O)NC(=O)[C@H](CO)NC(=O)CNC(=O)[C@H](CCC(=O)O)NC(=O)[C@H](C(C)C)NC(=O)[C@H](CO)NC(=O)[C@H](CCCNC(=N)N)NC1=O)C(C)C; listed as Homo sapiens) [compound 9404]”: the Glycerol release is given as 1.75 ± 0.12 μmol/g tissue/hr in test [1] (peptide concentration 0.1 μM) and 1.94 ± 0.12 μmol/g tissue/hr in test [1] (peptide concentration 1.0 μM).

With “9407 (LRIVQCKSVEGSCGF; disulfide 6-13; listed as Homo sapiens) [compound 9407]”, the Glycerol release in test [1] (peptide concentration 0.1 μM) is on record as 1.83 ± 0.11 μmol/g tissue/hr; in test [1] (peptide concentration 1.0 μM), 1.79 ± 0.07 μmol/g tissue/hr. Moreover, the “activity according to the in vivo and in vitro assay results (in words)” value in test [2] was “retains activity”.

Consider “9604 (YLRIVQCRSVEGSCGF; disulfide 7-14; listed as Homo sapiens) [compound 9604]”, for which the 14C incorporation in test [3] was 28 ± 3 Av DPM/mg tissue/hour. Moreover, in the test with C57BL/6J (ob/ob) mice (16-week old ob/ob mice, chronic treatment, FIG. 12), the “cumulative weight gain (in words)” value is given as “exceptional efficacy”. For the same substance, the Glycerol released in the test on Porcine adipose Tissue is 1600 ± 20 nmol/mg tissue/hour.

Take “9605 (KLRIVQCRSVEGSCGF; disulfide 7-14; listed as Homo sapiens) [compound 9605]”: the 14C incorporation in test [3] was found to be 36 ± 2 Av DPM/mg tissue/hour. For the same substance, the values for the Glycerol released (in the test with Porcine adipose Tissue; in test [4]) were 1350 ± 80 nmol/mg tissue/hour and 1100 ± 80 nmol/mg tissue/hour, respectively.

Regarding “9615 (LRIVQCRSVEASCGF; disulfide 6-13; listed as Homo sapiens) [Compound 9615]”, in test [2], the “In vitro lipogenesis % of control” value is recorded as 76 % of control; the “In vitro lipogenesis Activity” value is listed as “Active”; the “In vitro lipogenesis, rate of [C14]-glucose incorporation into [C14]-lipid” value (“In vitro lipogenesis, rate” below) came to 183 ± 17 nmol/g tissue/hr.

With “9616 (LRIVQCRSVEGACGF; disulfide 6-13; listed as Homo sapiens) [Compound 9616]”, in test [2], the “In vitro lipogenesis % of control” value was 84 % of control; the “In vitro lipogenesis Activity” value was “Active”; the “In vitro lipogenesis, rate” value came out at 203 ± 19 nmol/g tissue/hr.

Consider “9617 (LRIVQCRSVEGSAGF; listed as Homo sapiens) [Compound 9617]”, for which, in test [2], the “In vitro lipogenesis % of control” value is listed as 92 % of control; the “In vitro lipogenesis Activity” value was “Inactive”; the “In vitro lipogenesis, rate” value is given as 223 ± 16 nmol/g tissue/hr.

For the substance “9617 (LRIVQCRSVEGSAGF; listed as Homo sapiens) [compound 9617]”, in test [2], the “activity according to the in vivo and in vitro assay results (in words)” value was “inactive”.

As for “9618 (KKLRIVQCRSVEGSCGF; disulfide 8-15; listed as Homo sapiens) [Compound 9618]”, in test [2], the “In vitro lipogenesis % of control” value is given as 77 % of control; the “In vitro lipogenesis Activity” value is reported as “Active”; the “In vitro lipogenesis, rate” value was determined as 188 ± 19 nmol/g tissue/hr.
